Test results from patent US11492413B2, “Switchable antibody conjugate” (Temple University—Of The Commonwealth System of Higher …, priority 2017, dated 2022).
Where two headings read alike, the source gives them in different places. Non-standard residues stand in square brackets, D forms with d. Residues, ends and D or L forms follow the SMILES beside them. Dolaproine = CO[C@@H]([C@@H]1CCCN1)[C@@H](C)C(=O)O; Dil = CC[C@H](C)[C@H](NC)[C@@H](CC(=O)O)OC; NMeV = CN[C@H](C(=O)O)C(C)C

Tests used:
[1] = tested on: CD19-positive Burkitt's lymphoma cell line Ramos; test: In vitro cytotoxicity assay (CellTiter Glo) on Ramos; format: cell-based; conditions: 72 hour incubation; mixtures αGCN4-Fab-MMAF:GCN4 fusion at molar ratio 2:1
Description: (§1) SK-BR-3 cell line (ATCC) was cultured and assayed in DMEM (Cellgro) supplemented with 10% (vol/vol) FBS, 100 IU/mL penicillin, and 100 μg/mL streptomycin. Ramos cell line (ATCC) was cultured and assayed in RPMI-1640 media mixed with the same supplements as described above. For cytotoxicity assay, SK-BR-3 cancer cells were plated in flat-bottom 96 well plates at 1000 cells, 90 μL fresh cell media/well, and were incubated overnight at 37° C., 5% CO2. The MMAF compound and protein samples were filtered (0.22 μm, EMD Millipore), serially diluted in PBS buffer as 10× stock solutions, and added in triplicate to cancer cells (10 μL/well). To prevent evaporation, the edges of the plates were filled with 200 μL of bank media. The plates were then incubated at 37° C., 5% CO2 for 72 hours, after which the ATP content of each well was measured by CellTiter Glo (Promega). The luminescence signals were detected on a Synergy H1 plate reader (BioTek). The viability of the cells treated with PBS buffer was used as a control, the signal of which was normalized as 100%. Ramos cancer cells were plated in flat-bottom 96 well plates at 10000 cells/well, and were directly treated with protein samples and MMAF control compound. The rest of the assay procedure was the same as described above.

[2] = tested on: Her2-positive breast cancer cell line SK-BR-3; test: In vitro cytotoxicity assay (CellTiter Glo) on SK-BR-3; format: cell-based
Description: as §1, with “The plates were then incubated at 37° C., 5% CO2 for 72 hours, after which the ATP content of each well was measured by CellTiter Glo (Promega).” left out

`CC[C@H](C)[C@@H]([C@@H](CC(=O)N1CCC[C@H]1[C@H](OC)[C@@H](C)C(=O)N[C@@H](Cc1ccccc1)C(=O)O)OC)N(C)C(=O)[C@@H](NC(=O)[C@@H](NC)C(C)C)C(C)C` [MMAF, monomethyl auristatin F] (H-[NMeV]V[Dil][Dolaproine]F-OH) gave an EC50 [1] of 89 ± 37 nM, an EC50 ([2]; 72 hour incubation, mixtures αGCN4-Fab-MMAF:GCN4 fusion at molar ratio 2:1, read-out: EC50 (nM) on SK-BR-3) of 50 ± 39 nM and an EC50 ([2]; range over Ramos and SK-BR-3, 72 hour incubation, read-out: EC50s, medium cytotoxicity of positive control) of 50 to 89 nM.
